In patent US20090105245A1, “METHODS FOR TREATING MACULAR EDEMA AND OCULAR ANGIOGENESIS USING AN ANTI-INFLAMMATORY AGENT AND A RECEPTOR TYROSINE KINASE INHIBITOR” (priority 2006, published 2009):
Entries after “also recorded” stand apart in the source; their conditions may differ.

Tests used:
[1] = system: laser-induced choroidal neovascularization in the mouse; test: Mouse laser-induced CNV, topical NSAID drops; assay type: in vivo; conditions: for CNV lesions at Bruch's membrane rupture sites vs vehicle: follow-up experiment
Experimental: METHODS: Choroidal neovascularization was generated by modification of a previously described technique [Tobe, 1998 #448]. Briefly, 4 to 5 week old female C57BL/6J mice were anesthetized with ketamine hydrochloride (100 mg/kg body weight) and the pupils were dilated with 1% tropicamide. Three burns of 532 nm diode laser photocoagulation (75 μm spot size, 0.1 seconds duration, 120 mW) were delivered to each retina using the slit lamp delivery system of an OcuLight GL Photocoagulator (Iridex, Mountain View, Calif.) and a hand held cover slide as a contact lens. Burns were performed in the 9, 12, and 3 o'clock positions of the posterior pole of the retina. Production of a bubble at the time of laser, which indicates rupture of Bruch's membrane, is an important factor in obtaining CNV [Tobe, 1998 #448], so only burns in which a bubble was produced were included in the study. […] In some experiments, both eyes were treated with drug and these mice were compared to littermates in which both eyes were treated with vehicle. In other experiments, one eye was treated with drug and the fellow eye was treated with vehicle. Eyes were rapidly dissected for choroidal flat mounts or frozen in optimum cutting temperature embedding compound (OCT; Miles Diagnostics, Elkhart, Ind.).
The sizes of CNV lesions were measured in choroidal flat mounts (Edelman and Castro, 2000). Mice used for the flat mount technique were anesthetized and perfused with 1 ml of phosphate-buffered saline containing 50 mg/ml of fluorescein-labeled dextran (2×10^6 average mw, Sigma, St. Louis, Mo.) as previously described (Tobe et al., 1998a). The eyes were removed and fixed for 1 hour in 10% phosphate-buffered formalin. The cornea and lens were removed and the entire retina was carefully dissected from the eyecup. Radial cuts (4-7, average 5) were made from the edge to the equator and the eyecup was flat mounted in Aquamount with the sclera facing down. Flat mounts were examined by fluorescence microscopy on an Axioskop microscope (Zeiss, Thornwood, N.Y.) and images were digitized using a 3 color CCD video camera (IK-TU40A, Toshiba, Tokyo, Japan) and a frame grabber. Image-Pro Plus software (Media Cybernetics, Silver Spring, Md.) was used to measure the total area of hyperfluorescence associated with each burn, corresponding to the total fibrovascular scar. The areas within each eye were averaged to give one experimental value per eye for plotting the areas in the figures.
In some mice, the eyes were rapidly removed and frozen in optimum cutting temperature embedding compound (OCT; Miles Diagnostics, Elkhart, Ind.). Ten μm frozen sections were cut through entire lesions and the sections were histochemically stained with biotinylated Griffonia simplicifolia lectin B4 (GSA, Vector Laboratories, Burlingame, Calif.) which selectively binds to vascular cells. Slides were incubated in methanol/H2O2 for 10 minutes at 4° C., washed with 0.05 M Tris-buffered saline, pH 7.6 (TBS), and incubated for 30 minutes in 10% normal porcine serum. Slides were incubated 2 hours at room temperature with biotinylated GSA and after rinsing with 0.05M TBS, they were incubated with avidin coupled to peroxidase (Vector Laboratories) for 45 minutes at room temperature. The slides were developed with HistoMark Red (Kirkegaard and Perry, Cabin John, Md.) to give a red reaction product and counter stained with Contrast Blue (Kirkegaard and Perry).

[2] = system: preretinal neovascularization in the mouse model of oxygen-induced retinopathy; test: Mouse model of oxygen-induced ischemic retinopathy, topical drops; assay type: in vivo; conditions: for retinal (preretinal) neovascularization vs vehicle: P12-P17
Experimental: METHODS: Ischemic retinopathy was produced in C57BL/6J mice by a method described by Smith et al [Smith, 1994 #50]. Seven-day-old (P7) mice and their mothers were placed in an airtight incubator and exposed to an atmosphere of 75±3% oxygen for 5 days. Incubator temperature was maintained at 23±2° C., and oxygen was measured every 8 hours with an oxygen analyzer. After 5 days, the mice were removed from the incubator, placed in room air, and drug treatment was begun. Mice were given one drop four times a day in masked fashion. At P17, after 5 days of treatment, mice were sacrificed, eyes were rapidly removed and frozen in OCT.
Ocular frozen sections (10 μm) were histochemically stained with GSA as described above except that diaminobenzidine was used to give a brown reaction product. Slides were counterstained with eosin, which stains the internal limiting membrane and mounted with Cytoseal. To perform quantitative assessments, 10 μm serial sections were cut through the entire eye starting with sections that included the iris root on one side of the eye and proceeding to the iris root on the other side. Every tenth section, roughly 100 μm apart, were stained with GSA, examined with an Axioskop microscope, and images were digitized using a 3 CCD color video camera and a frame grabber. Image-Pro Plus software was used to delineate GSA-stained cells on the surface of the retina and their area was measured. For plotting the area measurements for the figure, the mean of the measurements from each eye was used as a single experimental value.

[3] = system: retinal vasculature and neuronal function in the STZ-diabetic rat; test: STZ-diabetic rat, topical eyedrops for 2 months or 9 months; assay type: in vivo
Experimental: Methods. Streptozotocin (STZ)-induced diabetic rats were assigned to 3 groups (untreated control, Nepafenac eyedrops, and vehicle eyedrops) for comparison to nondiabetic controls. Eyedrops were administered in both eyes 4 times/day using both subacute (2 mos) or chronic dosing paradigms (9 mos). During the 2 month study, prostaglandin E2 (PGE2), cyclooxygenase (COX)-2, and VEGF were measured by immunoassay, superoxide generation was measured by bioluminescence, activities of caspases 3 and 6 were measured fluorimetrically, and nitric oxide (NO) was estimated from levels of nitrite plus nitrate. Moreover, retinal leukostasis was quantified after intravenous perfusion with FITC-concanavalin A. During the 9-month study, vascular lesions associated with diabetic retinopathy were quantitated after isolation of the retinal vasculature by the trypsin digest technique, and loss of cells in the ganglion cell layer was evaluated in retinal cross-sections. In the chronic dosing study, retinal function also was assessed by measuring electroretinograms (ERGs) under dark and light adapted conditions to evaluate rod and cone pathways, respectively. The impact of topical ocular administration on corneal protease activity was assessed with MMP mRNA analysis and zymography. The signals were imported into Matlab™ (Mathworks Inc.) for further processing and the oscillatory potentials (OP's) were isolated using a 9 pole Butterworth filter with 34 Hz cutoff frequency (unity gain above 40 Hz and >12 dB attenuation 0 to 30 Hz). To simplify the analysis of OP timing the summed latency was calculated for OP's 1-4 similar to Hancock and Kraft, where TTP=(t1+t2+t3+t4) and tx=the time to peak of OPx.

VEGF mRNA = test: Semi-quantitative RT-PCR of retinal VEGF mRNA in mice with ischemic retinopathy; assay type: in vivo, mouse; conditions: P12-P17
Experimental: Mice with ischemic retinopathy were treated with 0.1% or 0.5% Nepafenac drops or vehicle drops four times a day between P12 and P17 and then sacrificed and retinal RNA was isolated using the guanidine isothiocyanate method as described by Chomczynski and Sacchi [Chomczynski, 1987 #30]. Reverse transcription was carried out with 0.5 μg of total RNA, reverse transcriptase (SuperScript II, Life Technologies, Gaithersburg, Md.), and 5.0 μM oligo d(T) primer. Aliquots of the cDNAs were used for PCR amplification with primers specific for VEGF, (5′-TTACTGCTGTACCTCCACC-3′) and (5′-ACAGGACGGCTTGAAGATG-3′). Titrations were performed to insure that PCR reactions were carried out in the linear range of amplification. Mouse S16 ribosomal protein primers (5′-[…]-3′ and 5′-[…]-3′) were used to provide an internal control for the amount of template in the PCR reactions.

visual acuity = conditions: Phase III, at 24 months, up to; cited from earlier work
[4] = 0.1% drops 4 times a day for 14 days
[5] = eyedrops 4 times/day, 2 months of diabetes

**Q.** For `O=C(O)Cc1ccccc1Nc1c(Cl)cccc1Cl` [diclofenac], which “CNV lesions at Bruch's membrane rupture sites vs vehicle” value [1, 4] is on record?
**A.** no difference from vehicle-treated eyes

**Q.** Which “size of CNV lesions vs vehicle” value ([1]; 0.5% drops 4 times a day for 1 week) does the source give for `O=C(c1ccccc1)c1ccc2n1CCC2C(=O)O` (centres unmarked) [ketorolac tromethamine] here?
**A.** no difference in the size of CNV lesions between the two groups

**Q.** What about the survival ([1]; 0.5% drops or vehicle 4 times a day for 1 week) of the same molecule?
**A.** All mice survived

**Q.** And the “CNV vs vehicle in surviving mice” value ([1]; 0.5% drops, 2 weeks, numbers insufficient for statistics)?
**A.** did not appear to have less CNV than mice treated with vehicle

**Q.** What about the mortality ([1]; 0.5% drops, two weeks) of the same molecule?
**A.** high mortality

**Q.** With `NC(=O)Cc1cccc(C(=O)c2ccccc2)c1N` [nepafenac, 2-Amino-3-benzoyl-phenylacetamide] as the molecule, how does the “retinal (preretinal) neovascularization vs vehicle” value ([2]; 0.1% drops 4 times a day) read?
**A.** significantly less retinal neovascularization; also recorded: significantly less preretinal NV

**Q.** And the “retinal (preretinal) neovascularization vs vehicle” value ([2]; 0.5% drops 4 times a day)?
**A.** significantly less retinal neovascularization; also recorded: significantly less preretinal NV

**Q.** What about the “inhibition of preretinal neovascularization” value ([2]; topical, mouse OIR (FIG. 11)) of the same molecule?
**A.** inhibits preretinal neovascularization

**Q.** What about the “protection against OP (oscillatory potential) delays, ERG” value ([3]; 0.3% topical, chronic dosing) of the same molecule?
**A.** completely protected

**Q.** What about the “inhibition of morphologic vascular changes” value ([3]; 9 months of diabetes, STZ-diabetic rat (FIG. 12)) of the same molecule?
**A.** inhibits morphologic vascular changes present at 9 months of diabetes

**Q.** And the “diabetes-induced activation of caspases 3 and 6 in retina” value [3, 5]?
**A.** partially inhibited

**Q.** What about the “retinal VEGF or NO levels” value [3, 5] of the same molecule?
**A.** no effect

**Q.** What about the “TUNEL-positive capillary cells, acellular capillaries and pericyte ghosts” value ([3]; eyedrops 4 times/day, chronic dosing (9 months)) of the same molecule?
**A.** significantly inhibited all of these retinal abnormalities

**Q.** What about the “corneal protease activity vs vehicle” value ([3]; topical, after 9 months of diabetes) of the same molecule?
**A.** No significant changes

**Q.** What about the “OP summed latency (TTP) vs nondiabetic control animals” value ([3]; topical, chronic dosing) of the same molecule?
**A.** statistically no different than nondiabetic control animals

**Q.** What about the “retinal VEGF mRNA vs vehicle” value (VEGF mRNA; 0.1% drops 4 times a day) of the same molecule?
**A.** less VEGF mRNA than retinas from eyes treated with vehicle

**Q.** And the “retinal VEGF mRNA vs vehicle” value (VEGF mRNA; 0.5% drops 4 times a day)?
**A.** less VEGF mRNA than retinas from eyes treated with vehicle

**Q.** And the “CNV lesions at Bruch's membrane rupture sites vs vehicle” value ([1]; 0.03% drops 4 times a day for 14 days)?
**A.** significantly smaller areas of CNV at Bruch's membrane rupture sites than did eyes treated with vehicle

**Q.** What about the “CNV lesions at Bruch's membrane rupture sites vs vehicle” value ([1]; 0.03% drops 4 times a day for 14 days, listed as nepafanac) of the same molecule?
**A.** significantly smaller than those in eyes treated with vehicle

**Q.** What about the “CNV lesions at Bruch's membrane rupture sites vs vehicle” value [1, 4] of the same molecule?
**A.** significantly smaller areas of CNV at Bruch's membrane rupture sites than did eyes treated with vehicle

**Q.** And the “CNV lesions at Bruch's membrane rupture sites vs vehicle” value ([1]; 0.1% drops 4 times a day for 14 days, listed as nepafanac)?
**A.** significantly smaller than those in eyes treated with vehicle

**Q.** What about the “CNV area vs vehicle” value ([1]; 0.1% drops 4 times a day, 2 weeks, first experiment) of the same molecule?
**A.** significantly smaller CNV lesions than treatment with vehicle

**Q.** What about the “area of CNV in treated eye compared to vehicle-treated fellow eye” value ([1]; 0.1% drops in one eye, vehicle in fellow eye) of the same molecule?
**A.** significantly less

**Q.** And the “CNV area vs vehicle” value ([1]; 0.5% drops 4 times a day, 2 weeks)?
**A.** significantly smaller CNV lesions than treatment with vehicle

**Q.** What about the “inhibition of laser-induced choroidal neovascularization” value ([1]; topical, mouse (FIG. 10)) of the same molecule?
**A.** inhibits laser-induced choroidal neovascularization

B1: ranibizumab (antibody, chains of the INN, looked up, V domains shown)
VH: EVQLVESGGGLVQPGGSLRLSCAASGYDFTHYGMNWVRQAPGKGLEWVGWINTYTGEPTYAADFKRRFTFSLDTSKSTAYLQMNSLRAEDTAVYYCAKYPYYYGTSHWYFDVWGQGTLVTVSS
VL: DIQLTQSPSSLSASVGDRVTITCSASQDISNYLNWYQQKPGKAPKVLIYFTSSLHSGVPSRFSGSGSGTDFTLTISSLQPEDFATYYCQQYSTVPWTFGQGTKVEIK
modifications: Fab
**Q.** For B1, which “patients with improved visual acuity” value (visual acuity) is on record?
**A.** 35-40%
